In US11814391B2, “Macrocyclic compounds for the treatment of medical disorders” (Achillion Pharmaceuticals, Inc., priority 2018, dated 2023):
Read-outs that look alike come from different tables or passages of the source.

Biological target: Human Factor D (Homo sapiens (Human), UniProt P00746)
Experiment: Human Factor D assay
Format: biochemical
Description: The assay of Example 3 was used to determine the IC50's of the compounds. Other standard factor D inhibition assays are also available.
Human Factor D (purified from human serum, Complement Technology, Inc.) at 80 nM final concentration is incubated with test compound at various concentrations for 5 min at room temperature in 50 mM Tris, 1M NaCl, pH 7.5. A synthetic substrate Z-L-Lys-SBzI and DTNB (Ellman's reagent) are added to final concentrations of 100 μM each. Absorbance at 405 nm (A405) is recorded at 30 second intervals for 30 min using a microplate spectrophotometer. IC50 values are calculated by nonlinear regression of complement Factor D reaction rates as a function of test compound concentration.

[1] = Human Factor D 80 nM, substrate Z-L-Lys-SBzl, A405, read-out: IC50 (Stars)

Human Factor D, sequence (P00746 26-253): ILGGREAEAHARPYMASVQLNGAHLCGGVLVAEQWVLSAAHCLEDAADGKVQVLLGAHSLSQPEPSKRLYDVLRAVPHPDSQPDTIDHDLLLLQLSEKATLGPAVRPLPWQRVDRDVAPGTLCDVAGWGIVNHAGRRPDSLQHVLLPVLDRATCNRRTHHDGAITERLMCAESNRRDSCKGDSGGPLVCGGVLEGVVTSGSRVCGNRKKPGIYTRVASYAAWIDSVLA

| Compound | IC50 [1] [nM] | IC50 [nM] |
| --- | --- | --- |
| CC(=O)c1nn2c3c(cc(-c4cnc(C)nc4)cc13)CCCCCCC(=O)NC[C@@]13C[C@@H](C(=O)Nc4nc(C5CC5)ccc4C)N(C(=O)C2)[C@@H]1C3 [Compound 11, (4^1R,4^3S,45^R)-1^3-acetyl-N-(6-cyclopropyl-3-methylpyridin-2-yl)-15-(2-methylpyrimidin-5-yl)-3,7-dioxo-1^1H-4^2,6-diaza-1(1,7)-indazola-4(2,5)-bicyclo[3.1.0]hexanacyclotridecaphane-4^3-carboxamide] | < 1000 |  |
| CC(=O)c1nn2c3c(cc(OCC(C)C)cc13)CCCCCCC(=O)NC[C@@]13C[C@@H](C(=O)Nc4nc(C(F)(F)F)ccc4C)N(C(=O)C2)[C@@H]1C3 [Compound 17, (4^1R,4^3S,4^5R)-1^3-acetyl-1^5-isobutoxy-N-(3-methyl-6-(trifluoromethyl)pyridin-2-yl)-3,7-dioxo-1^1H-4^2,6-diaza-1(1,7)-indazola-4(2,5)-bicyclo[3.1.0]hexanacyclotridecaphane-4^3-carboxamide] | < 1000 |  |
| CC(=O)c1nn2c3c(cc(-c4cnc(C)nc4)cc13)CCCCC[C@@H](C)C(=O)NC[C@@]13C[C@@H](C(=O)Nc4ccc(F)c(Br)n4)N(C(=O)C2)[C@@H]1C3 [Compound 16, (4^1R,4^3S,4^5R,8R)-1^3-acetyl-N-(6-bromo-5-fluoropyridin-2-yl)-8-methyl-1^5-(2-methylpyrimidin-5-yl)-3,7-dioxo-1^1H-4^2,6-diaza-1(1,7)-indazola-4(2,5)-bicyclo[3.1.0]hexanacyclotridecaphane-4^3-carboxamide] | < 1000 |  |
| CC(=O)c1nn2c3c(cccc13)CC/C=C/CC(=O)NC[C@@]13C[C@@H](C(=O)Nc4nc(Br)ccc4C)N(C(=O)C2)[C@@H]1C3 [Compound 46, (41R,43S,45R,E)-13-acetyl-N-(6-bromo-3-methylpyridin-2-yl)-3,7-dioxo-11H-42,6-diaza-l(1,7)-indazola-4(2,5)-bicyclo[3.1.0]hexanacyclododecaphan-9-ene-43-carboxamide] | < 1000 |  |
| CC(=O)c1nn2c3c(cccc13)CC/C=C/CCC(=O)NC[C@@]13C[C@@H](C(=O)Nc4nc(Br)ccc4C)N(C(=O)C2)[C@@H]1C3 [Compound 47, (41R,43S,45R,E)-13-acetyl-N-(6-bromo-3-methylpyridin-2-yl)-3,7-dioxo-11H-42,6-diaza-1(1,7)-indazola-4(2,5)-bicyclo[3.1.0]hexanacyclotridecaphan-10-ene-43-carboxamide] | < 1000 |  |
| CC(=O)c1nn2c3c(cc(C(C)C)cc13)CCCCCCC(=O)NC[C@@]13C[C@@H](C(=O)Nc4nc(C(F)(F)F)ccc4C)N(C(=O)C2)[C@@H]1C3 [Compound 21, (4^1R,4^3S,4^5R)-1^3-Acetyl-1^5-isopropyl-N-(3-methyl-6-(trifluoromethyl)pyridin-2-yl)-3,7-dioxo-1^1H-4^2,6-diaza-1(1,7)-indazola-4(2,5)-bicyclo[3.1.0]hexanacyclotridecaphane-4^3-carboxamide] | < 1000 |  |
| CC(=O)c1nn2c3c(cc(-c4cnc(C)nc4)cc13)CCCCCC(C)(C)CNC[C@@]13C[C@@H](C(=O)NC4CC(C)(C)C4)N(C(=O)C2)[C@@H]1C3 [Compound 61, (41R,43S,45R)-13-acetyl-N-(3,3-dimethylcyclobutyl)-8,8-dimethyl-15-(2-methylpyrimidin-5-yl)-3-oxo-11H-42,6-diaza-1(1,7)-indazola-4(2,5)-bicyclo[3.1.0]hexanacyclotridecaphane-43-carboxamide] | < 1000 |  |
| CC(=O)c1nn2c3c(cc(-c4cnc(C)nc4)cc13)CNCC/C=C/COC[C@@]13C[C@@H](C(=O)Nc4nc(C(F)(F)F)ccc4C)N(C(=O)C2)[C@@H]1C3 [Compound 37, (4^1R,4^3S,4^5S,E)-1^3-acetyl-N-(3-methyl-6-(trifluoromethyl)pyridin-2-yl)-1^5-(2-methylpyrimidin-5-yl)-3-oxo-1^1H-6-oxa-4^2,12-diaza-1(1,7)-indazola-4(2,5)-bicyclo[3.1.0]hexanacyclotridecaphan-8-ene-4^3-carboxamide] | < 1000 |  |
| CC(=O)c1nn2c3c(cc(-c4cnc(C)nc4)cc13)CCCCCCCCCCN([C@@H](C)C(=O)Nc1nc(Br)ccc1C)C(=O)C2 [Compound 35, (S)-2-(2-acetyl-4-(2-methylpyrimidin-5-yl)-17-oxo-8,9,10,11,12,13,14,15,17,18-decahydro-6H-[1,4]diazacyclohexadecino[15,16,1-hi]indazol-16(7H)-yl)-N-(6-bromo-3-methylpyridin-2-yl)propanamide] |  | 1000 to 10000 |
| CC(=O)c1nn2c3c(cc(-c4cnc(C)nc4)cc13)NCCCCCC(=O)NCC13CC(C(=O)Nc4nc(C(F)(F)F)ccc4C)N(C(=O)C2)C1C3 [Compound 58, (41R,43S,45R)-13-acetyl-N-(3-methyl-6-(trifluoromethyl)pyridin-2-yl)-15-(2-methylpyrimidin-5-yl)-3,7-dioxo-11H-42,6,13-triaza-1(1,7)-indazola-4(2,5)-bicyclo[3.1.0]hexanacyclotridecaphane-43-carboxamide] | < 1000 |  |
| CC(=O)c1nn(CC(=O)N(C)[C@H]2CCCCCCCCCc3ccc(Br)nc3NC2=O)c2ccc(-c3cnc(C)nc3)cc12 [Compound 12, (S)-2-(3-acetyl-5-(2-methylpyrimidin-5-yl)-1H-indazol-1-yl)-N-(2-bromo-15-oxo-5,6,7,8,9,10,11,12,13,14, 15,16-dodecahydropyrido[2,3-b][1]azacyclotetradecin-14-yl)-N-methylacetamide] | 1000 to 10000 |  |
| CC(=O)c1nn2c3c(cc(Oc4ncc(C)cn4)cc13)CCCCCC(=O)NC[C@@]13C[C@@H](C(=O)Nc4nc(C(F)(F)F)ccc4C)N(C(=O)C2)[C@@H]1C3 [Compound 7, (4^1R,4^3S,4^5R)-1^3-acetyl-N-(3-methyl-6-(trifluoromethyl)pyridin-2-yl)-1^5-((5-methylpyrimidin-2-yl)oxy)-3,7-dioxo-1^1H-4^2,6-diaza-1(1,7)-indazola-4(2,5)-bicyclo[3.1.0]hexanacyclododecaphane-4^3-carboxamide] | < 1000 |  |
| CC(=O)c1nn2c3c(cc(-c4cnc(C)nc4)cc13)CCCCCCCCCC[C@@H](C(=O)Nc1nc(Br)ccc1C)N(C)C(=O)C2 [Compound 56, (S)-2-acetyl-N-(6-bromo-3-methylpyridin-2-yl)-17-methyl-4-(2-methylpyrimidin-5-yl)-18-oxo-6,7,8,9,10,11,12,13,14,15,16,17,18,19-tetradecahydro-[1,4]diazacycloheptadecino[16,17,1-hi]indazole-16-carboxamide] | > 10000 |  |
| CC(=O)c1nn2c3c(cc(C)cc13)CCCCCCC(=O)NC[C@@]13C[C@@H](C(=O)Nc4nc(C(F)(F)F)ccc4C)N(C(=O)C2)[C@@H]1C3 [Compound 18, (4^1R,4^3S,4^5R)-1^3-acetyl-1^5-methyl-N-(3-methyl-6-(trifluoromethyl)pyridin-2-yl)-3,7-dioxo-1^1H-4^2,6-diaza-1(1,7)-indazola-4(2,5)-bicyclo[3.1.0]hexanacyclotridecaphane-4^3-carboxamide] | < 1000 |  |
| CC(=O)c1nn2c3c(cc(-c4cnc(C)nc4)cc13)CNCCCCCOC[C@@]13C[C@@H](C(=O)Nc4nc(C(F)(F)F)ccc4C)N(C(=O)C2)[C@@H]1C3 [Compound 36, (4^1R,4^3S,4^5S)-1^3-acetyl-N-(3-methyl-6-(trifluoromethyl)pyridin-2-yl)-1^5-(2-methylpyrimidin-5-yl)-3-oxo-1^1H-6-oxa-4^2,12-diaza-1(1,7)-indazola-4(2,5)-bicyclo[3.1.0]hexanacyclotridecaphane-4^3-carboxamide] | < 1000 |  |
| CC(=O)c1nn(CC(=O)N2[C@H]3C[C@]4(C[C@@H]24)Cn2cc(nn2)COCc2ccc(Br)nc2NC3=O)c2cnccc12 [Compound 48, (31R,33S,35R,Z)-32-(2-(3-acetyl-1H-pyrazolo[3,4-c]pyridin-1-yl)acetyl)-66-bromo-11H-8-oxa-32,5-diaza-6(2,3)-pyridina-1(1,4)-triazola-3(5,3)-bicyclo[3.1,0]hexanacyclononaphan-4-one] | < 1000 |  |
| CC(=O)c1nn2c3c(cc(-c4cnc(C)nc4)cc13)CNC(=O)CCCCOC[C@@]13C[C@@H](C(=O)Nc4nc(C(F)(F)F)ccc4C)N(C(=O)C2)[C@@H]1C3 [Compound 33, (4^1R,4^3S,4^5S)-1^3-acetyl-N-(3-methyl-6-(trifluoromethyl)pyridin-2-yl)-1^5-(2-methylpyrimidin-5-yl)-3,11-dioxo-1^1H-6-oxa-4^2,12-diaza-1(1,7)-indazola-4(2,5)-bicyclo[3.1.0]hexanacyclotridecaphane-4^3-carboxamide] | < 1000 |  |
| CC(=O)c1nn2c3c(cc(-c4cnc(C)nc4)cc13)CCCCC[C@@H](C)C(=O)NC[C@@]13C[C@@H](C(=O)Nc4nc(C(F)(F)F)ccc4C)N(C(=O)C2)[C@@H]1C3 [Compound 8, (4^1R,4^3S,4^5R,8R)-1^3-acetyl-8-methyl-N-(3-methyl-6-(trifluoromethyl)pyridin-2-yl)-1^5-(2-methylpyrimidin-5-yl)-3,7-dioxo-1^1H-4^2,6-diaza-1(1,7)-indazola-4(2,5)-bicyclo[3.1.0]hexanacyclotridecaphane-4^3-carboxamide] | < 1000 |  |
| CC(=O)c1nn2c3c(cc(-c4cnc(C)nc4)cc13)CCCCC[C@@H](C)C(=O)NC[C@@]13C[C@@H](C(=O)Nc4cc(F)cc(Br)n4)N(C(=O)C2)[C@@H]1C3 [Compound 9, (4^1R,4^3S,4^5R,8R)-1^3-acetyl-N-(6-bromo-4-fluoropyridin-2-yl)-8-methyl-1^5-(2-methylpyrimidin-5-yl)-3,7-dioxo-1^1H-4^2,6-diaza-1(1,7)-indazola-4(2,5)-bicyclo[3.1.0]hexanacyclotridecaphane-4^3-carboxamide] | < 1000 |  |
